Values quoted from earlier work in PMC11997881, “Comprehensive Characterization of Bruton’s Tyrosine Kinase Inhibitor Specificity, Potency, and Biological Effects: Insights into Covalent and Noncovalent Mechanistic Signatures” (ACS Pharmacology & Translational Science, 2025).

What was measured:
[1] = tested on: BTK C481S; settings: literature values; read-out: average published IC50 for BTK C481S; cited from earlier work
[2] = molecular target: BTK C481S; settings: average of literature values; read-out: average published Kd for BTK C481S; cited from earlier work

SMILES: O=C(c1ccc(Oc2ccccc2)cc1Cl)c1c[nH]c2ncnc(N[C@@H]3CC[C@@H](CO)OC3)c12 [Nemtabrutinib]
- IC50 [1]: 0.39 nM

SMILES: COc1ccc(F)cc1C(=O)NCc1ccc(-c2nn([C@@H](C)C(F)(F)F)c(N)c2C(N)=O)cc1 [Pirtobrutinib]
- Kd [2]: 2.6 nM
